The text below walks through data of the NIST ThermoML archive (doi:10.1016/j.jct.2010.05.007).

Numbers after ± are expanded uncertainties.

Data set [1] can be described thus: Molar enthalpy of transition or fusion. Conditions: Crystal 1; Adiabatic calorimetry.
For data set [2] the following is noted: Crystal 1; Adiabatic calorimetry.
The nature of data set [3]: molar heat capacity at constant pressure. Conditions: 298 K; 101.33 kPa; Liquid; Vacuum adiabatic calorimetry.

With `CCCCn1cc[n+](C)c1.[I-]` [1-butyl-3-methylimidazolium iodide], the “Molar enthalpy of transition or fusion” value in data set [1] amounted to 19 ± 0.2 kJ/mol. Also, the Triple point temperature in data set [2] is listed as 291.87 ± 0.05 K. Moreover, the “molar heat capacity at constant pressure” value in data set [3] stood at 310 ± 2.4 J/K/mol.
